# From patent US11209437B2, “Fluorescent probe and preparation method and use thereof” (Fluorescence Diagnosis (shanghai) Biotech Company Ltd., priority 2016, dated 2021)
# Assays:
# [1] = Viscosity responsiveness: fluorescence emission spectra of probes in glycerol and methanol; type: physicochemical; conditions: for Emission wavelength: excited at maximum excitation wavelength of each probe; for Fluorescence ratio in glycerol to methanol: probe 1×10^−5 M
# Method in brief: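 Each probe, from a 1×10^−2 M DMSO stock, was diluted to a final 1×10^−5 M in glycerol and in methanol. Fluorescence emission spectra were then recorded under identical conditions at each probe's maximum excitation wavelength.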
# SNAP protein tags = molecular target: T1, SNAP protein tags (Homo sapiens, UniProt P16455, A127T/A154D/C150Q/C62A/E30R/G131K/G132T/G153L/K125A/K32I/L33F/M134L/N157G/Q115S/Q116H/R128A/R135S/S151G/S152D/S159E); experiment: Fluorescence activation of probe after incubation with corresponding protein tag (SNAP); type: biochemical; conditions: probe 5 μM, protein tag 10 μM, 37° C., 1 hr
# T1 sequence (P16455 1-182 E30R/K32I/L33F/C62A/Q115S/Q116H/K125A/A127T/R128A/G131K/G132T/M134L/R135S/C150Q/S151G/S152D/G153L/A154D/N157G/S159E): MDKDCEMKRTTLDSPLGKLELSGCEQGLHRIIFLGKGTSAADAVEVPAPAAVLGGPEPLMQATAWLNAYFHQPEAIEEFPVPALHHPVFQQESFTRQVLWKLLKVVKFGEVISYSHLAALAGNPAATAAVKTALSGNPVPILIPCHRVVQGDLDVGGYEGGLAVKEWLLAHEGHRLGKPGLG
# Method in brief: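 Probe (5 μM final) mixed with CLIP or SNAP protein tag (10 μM final) and incubated 1 hr at 37° C. Fluorescence intensity change measured by fluorescence spectrophotometer, with quantum yield of tag-bound probe determined.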
# fusion protein CX43-SNAP = experiment: Tracing assembly of CX43-SNAP intercellular channels in HeLa cells; type: cell-based; conditions: probe 21 2 μM 1 hour first, then probe 1 1 μM
# Excerpt: To verify that the probe of the present invention can be used to monitor the assembly and degradation process of biological macromolecules in mammalian cells in real time, the process of tracing the assembly of intercellular protein CX43 to form intercellular channels in mammalian cells by the probe was detected by taking HeLa cells as an example. The C-terminal of CX43 gene was fused with SNAP gene, and HeLa cell line with stable expression of fusion protein CX43-SNAP was constructed and obtained by lentivirus infection technology. HeLa-CX43-SNAP cell lines were implanted in a 20 mm glass-bottom cell culture dish 10 hrs before the probe labeling. To conduct labeling, a phenol-free red DMEM medium was first used to dilute the probe 21 to 2 μM to replace the original cell culture medium. Cells were incubated in a carbon dioxide incubator at 37° C. for 1 hour. The cells were then washed twice using a fresh phenol-free red DMEM medium, with unbound probe 21 removed at 2-minute intervals. Then, DMEM phenol-free red culture medium containing 1 μM probe 1 was added to label cells. Leica SP8 confocal microscopy was used to monitor for a long time the fluorescence intensity and position changes of labeled cell samples at the corresponding fluorescence channels of probes 21 and 1, as shown in FIGS. 17A and 17B, respectively. […]
# HeLa cells = experiment: Labeling of organelle-localized protein tags in HeLa cells without washing; type: cell-based; conditions: 0.2 μM probe, 2 hrs, no washing
# Excerpt: To verify that probes 1, 21, 48, 60, 66 and 77 can be used to label target proteins located by different organelles, HeLa cells were taken as an example to detect the effect of probes on labeling different subcellular proteins. HeLa cells were implanted 5000 cells per well in a 96-well glass-bottom cell culture plate. 14 hrs later, the cells were transfected with the plasmids encoding different organelle localized protein tags using Lipo2000; the original medium was removed 24 hrs after transfection, washed with a phenol-free red DMEM medium twice, and incubated with a phenol-free red medium containing 0.2 μM probes for 2 hrs, and then the cell labeling effects were detected by imaging with a leica TCS-8 confocal microscopy.
# [2] = system: HeLa cells with stable expression of protein tags; experiment: Labeling of HeLa cells expressing protein tags vs HeLa-WT cells, confocal imaging; type: cell-based; conditions: probe 5 μM, 37° C., 2 hrs
# Method: HeLa cells with stable expression of protein tags and HeLa-WT cells (HeLa primitive cells, with no protein tag expressed) were implanted in a 14 mm glass-bottom 96-well cell culture plate and stabilized for 10 hrs. Probes 1, 15, 21, 30, 56, 60, 63, 88 were added to the media, respectively and diluted to 5 μMs. The cells were incubated in a carbon dioxide incubator at 37° C. for 2 hrs, and then a Leica TPS-8 confocal microscopy was used to image the fluorescent changes of the labeled cells. […] However, for HeLa cells with protein tags expressed shown by group A in FIG. 12, strong fluorescent signals could be detected, which are nearly 300 times stronger.
# [3] = Fluorescence of free probe prior to binding to a protein tag; type: physicochemical
# CLIP protein tags = experiment: Fluorescence activation of probe after incubation with corresponding protein tag (CLIP); type: biochemical; conditions: probe 5 μM, protein tag 10 μM, 37° C., 1 hr
# Method: Probes were mixed with corresponding protein tags to obtain mixed samples, in which the final probe concentration was 5 μM, and the final protein tag concentration was 10 μM. The mixed samples were incubated 37° C. for 1 hr, fluorescence spectrophotometer was used to detect the change in fluorescence intensity, and the results are shown in Table 1.
# From the quantum yield of probe bound to protein tag, after reacting with the protein tags, the probes of the Examples could be detected to have significant signal enhancement in corresponding excitation transmission channels, the fluorescence activation multiple reached several hundreds to a thousand or more, and the brightness was high, which illustrates that after the probes of the Examples are bound to the protein tags, fluorescence of the probes can be activated, and the probes have good fluorescent molecular switching properties. In contrast, though the fluorescence of the reference probes could also be activated, the quantum yield of activated fluorescence was very low, and the brightness was very poor. In particular, in view of comparison results between probe 98 and reference probe 99, probe 101 and reference probe 102, probe 103 and reference probe 104, probe 105 and reference probe 106, probe 107 and reference probe 108, probe 109 and reference probe 110, probe 111 and reference probe 112, probe 114 and reference probe 115, probe 117 and reference probe 118, probe 120 and reference probe 121 in Table 1, for the same fluorescent dye, when the ligand is connected to the electron donor part of the fluorescent dye, the fluorescence activation brightness of the probe is much higher than the reference probe in which ligand is connected to the electron acceptor part of the fluorescent dye.
Emission wavelength [1],Fluorescence ratio in glycerol to methanol [1],Fluorescence activation multiple (SNAP protein tags),Quantum yield of probe bound to protein tag (SNAP protein tags),Quantum yield of free probe [3],Compound,Fluorescence signal at intercellular channels (fusion protein CX43-SNAP),Labeling of subcellular organelle structures (HeLa cells),Fluorescence signal in HeLa-WT cells (no protein tag expressed) [2],"Fluorescent signal in HeLa cells with protein tags expressed, relative to HeLa-WT [2]",Fluorescence activation multiple (CLIP protein tags),Quantum yield of probe bound to protein tag (CLIP protein tags)
570 nm,1125,535,0.55,<0.001,CN(CCOC(=O)NCc1ccc(COc2nc(N)nc3[nH]cnc23)cc1)c1ccc2cc(/C=C(\C#N)C(=O)OC(C)(C)C)sc2c1 [probe 30],–,–,no corresponding fluorescence signal was detected,~300 times,–,–
566 nm,436,989,0.39,<0.001,CN(CCOC(=O)NCc1ccc(COc2nc(N)nc3[nH]cnc23)cc1)c1ccc(C#C/C=C(\C#N)C(=O)OC(C)(C)C)cc1 [probe 56],–,–,no corresponding fluorescence signal was detected,~300 times,–,–
620 nm,1199,751,0.81,0.0011,CN(CCOC(=O)NCc1ccc(COc2nc(N)nc3[nH]cnc23)cc1)c1cc2sc3cc(/C=C(\C#N)C(=O)OC(C)(C)C)sc3c2s1 [probe 60],–,clearly display a variety of subcellular organelle structures without washing,no corresponding fluorescence signal was detected,~300 times,–,–
620 nm,531,486,0.73,0.0015,CN(CCOC(=O)NCc1ccc(COc2nc(N)nc3[nH]cnc23)cc1)c1ccc2c(c1)sc1cc(/C=C(/C#N)C(=O)OC(C)(C)C)sc12 [probe 63],–,–,no corresponding fluorescence signal was detected,~300 times,–,–
620 nm,386,512,0.37,<0.001,CN(CCOC(=O)NCc1ccc(COc2nc(N)nc3[nH]cnc23)cc1)c1ccc(-c2ccc(/C=C(\C#N)C(=O)OC(C)(C)C)s2)cc1 [probe 66],–,clearly display a variety of subcellular organelle structures without washing,–,–,–,–
655 nm,279,268,0.38,0.0014,CN(CCOC(=O)NCc1ccc(COc2nc(N)nc3[nH]cnc23)cc1)c1ccc(-c2ccc(/C=C(\C#N)C(=O)OC(C)(C)C)s2)s1 [probe 77],–,clearly display a variety of subcellular organelle structures without washing,–,–,–,–
645 nm,431,–,–,<0.001,CN(CCOC(=O)NCc1ccc(COc2nccc(N)n2)cc1)c1cc2c(s1)-c1sc(/C=C(/C#N)C(=O)OC(C)(C)C)cc1C2(C)C [probe 95],–,–,–,–,553,0.42

# More lines, now with the values behind:
Compound,Emission wavelength [1],Fluorescence ratio in glycerol to methanol [1],Fluorescence activation multiple (SNAP protein tags),Quantum yield of probe bound to protein tag (SNAP protein tags),Quantum yield of free probe [3],Fluorescence signal at intercellular channels (fusion protein CX43-SNAP),Labeling of subcellular organelle structures (HeLa cells),Fluorescence signal in HeLa-WT cells (no protein tag expressed) [2],"Fluorescent signal in HeLa cells with protein tags expressed, relative to HeLa-WT [2]",Fluorescence activation multiple (CLIP protein tags),Quantum yield of probe bound to protein tag (CLIP protein tags)
CN(CCOC(=O)NCc1ccc(COc2nc(N)nc3[nH]cnc23)cc1)c1ccc(/C=C(\C#N)C(=O)OC(C)(C)C)cc1 [probe 1],480 nm,560,360,0.35,<0.001,appeared and gradually increased at the edge of intercellular channels,clearly display a variety of subcellular organelle structures without washing,no corresponding fluorescence signal was detected,~300 times,–,–
CN(CCOC(=O)NCc1ccc(COc2nccc(N)n2)cc1)c1ccc2nc(/C=C(\C#N)c3nc4ccccc4s3)oc2c1 [probe 48],625 nm,180,–,–,<0.001,–,clearly display a variety of subcellular organelle structures without washing,–,–,428,0.16
CC(C)(C)OC(=O)/C(C#N)=C/c1ccc2c(c1)SCCN2CCOC(=O)NCc1ccc(COc2nccc(N)n2)cc1 [probe 84],515 nm,121,–,–,<0.001,–,–,–,–,431,0.16
CC1=CC(C)(C)N(CCOC(=O)NCc2ccc(COc3nccc(N)n3)cc2)c2ccc(/C=C(\C#N)C(=O)OC(C)(C)C)cc21 [probe 90],575 nm,109,–,–,<0.001,–,–,–,–,541,0.28
CC1=CC(C)(C)N(CCOC(=O)NCc2ccc(COc3nccc(N)n3)cc2)c2ccc(/C=C(\C#N)c3nc4ccccc4s3)cc21 [probe 91],612 nm,163,–,–,0.0013,–,–,–,–,192,0.24
CN(CCOC(=O)NCc1ccc(COc2nccc(N)n2)cc1)c1cc2c(s1)-c1sc(/C=C(/C#N)c3nc4ccccc4o3)cc1C2(C)C [probe 96],675 nm,125,–,–,<0.001,–,–,–,–,435,0.31
CN(CCOC(=O)NCc1ccc(COc2nccc(N)n2)cc1)c1cc2c(s1)-c1sc(/C=C(/C#N)c3nc4ccccc4s3)cc1C2(C)C [probe 97],700 nm,261,–,–,<0.001,–,–,–,–,812,0.23
